Laboratory results as given in BindingDB's records for doi:10.1021/acs.jmedchem.2c01521 (Merck, 2023).

Biological target: cAMP and cAMP-inhibited cGMP 3',5'-cyclic phosphodiesterase 10A (Homo sapiens, UniProt Q9Y233)
Test: Inhibition of human PDE10A2 transfected in human AD293 cells cytosolic fraction using cAMP as substrate by fluorescence polarization assay

Chain of cAMP and cAMP-inhibited cGMP 3',5'-cyclic phosphodiesterase 10A (Q9Y233 whole entry): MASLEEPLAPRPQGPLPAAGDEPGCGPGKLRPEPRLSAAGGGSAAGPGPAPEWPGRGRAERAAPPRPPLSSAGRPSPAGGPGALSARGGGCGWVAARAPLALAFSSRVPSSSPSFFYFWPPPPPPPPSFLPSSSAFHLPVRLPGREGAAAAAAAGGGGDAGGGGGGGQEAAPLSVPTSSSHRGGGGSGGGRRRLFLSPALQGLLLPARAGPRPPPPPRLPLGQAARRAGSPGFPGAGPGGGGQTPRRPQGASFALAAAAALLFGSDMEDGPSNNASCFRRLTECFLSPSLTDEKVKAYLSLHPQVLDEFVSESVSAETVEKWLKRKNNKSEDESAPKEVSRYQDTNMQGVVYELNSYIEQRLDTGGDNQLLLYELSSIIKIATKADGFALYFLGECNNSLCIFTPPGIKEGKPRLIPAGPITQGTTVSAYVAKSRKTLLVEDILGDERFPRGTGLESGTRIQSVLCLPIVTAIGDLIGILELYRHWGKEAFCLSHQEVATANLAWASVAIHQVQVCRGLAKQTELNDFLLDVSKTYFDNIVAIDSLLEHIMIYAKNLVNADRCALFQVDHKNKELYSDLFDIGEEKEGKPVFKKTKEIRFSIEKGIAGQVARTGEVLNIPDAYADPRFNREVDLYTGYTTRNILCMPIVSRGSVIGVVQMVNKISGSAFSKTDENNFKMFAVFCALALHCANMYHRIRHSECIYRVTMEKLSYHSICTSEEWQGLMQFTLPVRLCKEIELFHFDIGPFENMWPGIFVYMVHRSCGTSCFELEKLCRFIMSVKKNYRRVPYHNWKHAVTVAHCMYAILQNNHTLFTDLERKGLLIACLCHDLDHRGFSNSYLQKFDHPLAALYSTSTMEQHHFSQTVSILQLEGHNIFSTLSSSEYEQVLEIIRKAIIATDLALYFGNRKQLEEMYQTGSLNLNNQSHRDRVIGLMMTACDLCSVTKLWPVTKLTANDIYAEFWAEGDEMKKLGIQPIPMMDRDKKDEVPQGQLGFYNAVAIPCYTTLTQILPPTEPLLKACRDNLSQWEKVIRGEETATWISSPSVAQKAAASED

Ki: 7.8 nM
SMILES: Cc1cnc(OC[C@H]2C[C@@H]2c2ccccn2)cc1NCc1cnn(C)c1
